Source: patent publication US20240109881A1, “Heteroaryl Compounds as Ligand Directed Degraders of IRAK4” (Bristol-Myers Squibb Company, priority 2022, published 2024)

Molecular target: T1, IRAK4 (Homo sapiens, UniProt Q9NWZ3)
T1 construct: endogenous in cells; host or cells: THP-1 cells
T1 sequence (Q9NWZ3 1-460): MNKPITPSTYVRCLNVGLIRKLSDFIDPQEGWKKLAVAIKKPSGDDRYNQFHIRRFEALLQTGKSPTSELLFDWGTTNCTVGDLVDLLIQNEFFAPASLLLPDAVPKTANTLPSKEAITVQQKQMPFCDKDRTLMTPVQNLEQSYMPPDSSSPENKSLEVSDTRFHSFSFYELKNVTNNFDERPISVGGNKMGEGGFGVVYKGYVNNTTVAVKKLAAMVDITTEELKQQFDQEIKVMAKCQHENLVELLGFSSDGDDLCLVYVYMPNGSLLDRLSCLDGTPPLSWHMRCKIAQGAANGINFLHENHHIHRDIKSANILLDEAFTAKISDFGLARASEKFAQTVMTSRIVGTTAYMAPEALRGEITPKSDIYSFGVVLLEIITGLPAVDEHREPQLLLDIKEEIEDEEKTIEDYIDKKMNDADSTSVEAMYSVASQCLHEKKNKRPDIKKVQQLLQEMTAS
Assay: LVL THP1 HTRF (THP1 Homogeneous Time Resolved Fluorescence)
Format: cell-based
Settings: THP1 cells, 18 h incubation with compound; for DC50: read-out: LVL THP1 HTRF EC50
How it was run: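 THP-1 cells in phenol red-free RPMI with 10% FBS were dosed with compound (20 nL in DMSO) for 18 h at 37° C. After 2 h lysis, IRAK4 was detected with anti-IRAK4-d2/anti-IRAK4-K HTRF antibodies for 18 h at room temperature and read at 665/615 nm; a parallel CTG plate was run.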

Structure (SMILES)	DC50	LVL THP1 HTRF YMIN
C[C@H](C#N)Nc1cc(-n2ncc3cnc(N)nc32)ncc1-n1cc([C@H]2CC[C@H](CCN3CCN(c4ccc([C@@]5(C)CCC(=O)NC5=O)cc4)CC3)CC2)nn1 [P-228]	0.009 µM	–
C[C@H](C#N)Nc1cc(-c2ccc3cc(C#N)cnn23)ncc1-n1cc(C2CCC(CCN3CCN(c4ccc([C@@]5(C)CCC(=O)NC5=O)cc4)CC3)CC2)nn1 (stereo partly drawn) [P-230]	–	2.8%
C[C@H](C#N)Nc1cc(-c2ccc3cc(C#N)cnn23)ncc1-n1cc([C@H]2CC[C@H](CCN3CCN(c4ccc([C@@]5(C)CCC(=O)NC5=O)cc4)CC3)CC2)nn1 [P-230]	0.007 µM	–
C[C@H](C#N)Nc1cc(-n2ncc3cnc(N)nc32)ncc1-n1cc(C2CCC(CCN3CCN(c4ccc(C5CCC(=O)NC5=O)cc4)CC3)CC2)nn1 (stereo partly drawn) [P-231]	–	1.37%
C[C@H](C#N)Nc1cc(-n2ncc3cnc(N)nc32)ncc1-n1cc([C@H]2CC[C@H](CCN3CCN(c4ccc(C5CCC(=O)NC5=O)cc4)CC3)CC2)nn1 (stereo partly drawn) [P-231]	0.001 µM	–
C[C@H]1CN(c2ccc([C@@]3(C)CCC(=O)NC3=O)cc2)C[C@H](C)N1CCC1CCC(c2cn(-c3cnc(-n4ncc5cc(C#N)cnc54)cc3NC3(C#N)CC3)nn2)CC1 (stereo partly drawn) [P-232]	0.065 µM	7.1%
C[C@H](C#N)Nc1cc(-n2ncc3cc(C#N)cnc32)ncc1-n1cc(C2CCC(CCN3CCC(c4ccc([C@@]5(C)CCC(=O)NC5=O)cc4)CC3)CC2)nn1 (stereo partly drawn) [P-233]	–	2.8%
C[C@H](C#N)Nc1cc(-n2ncc3cc(C#N)cnc32)ncc1-n1cc([C@H]2CC[C@H](CCN3CCC(c4ccc([C@@]5(C)CCC(=O)NC5=O)cc4)CC3)CC2)nn1 [P-233]	0.008 µM	–
C[C@]1(c2ccc(N3CCN(CCC4CCC(c5cn(-c6cnc(-n7ncc8cc(C#N)cnc87)cc6NC6(C#N)CC6)nn5)CC4)CC3)cc2)CCC(=O)NC1=O (stereo partly drawn) [P-234]	–	3.1%
C[C@]1(c2ccc(N3CCN(CC[C@H]4CC[C@H](c5cn(-c6cnc(-n7ncc8cc(C#N)cnc87)cc6NC6(C#N)CC6)nn5)CC4)CC3)cc2)CCC(=O)NC1=O [P-234]	0.013 µM	–
C[C@H](C#N)Nc1cc(-n2ncc3cc(C#N)cnc32)ncc1-n1cc(C2CCC(CCN3C[C@@H](C)N(c4ccc([C@@]5(C)CCC(=O)NC5=O)cc4)C[C@@H]3C)CC2)nn1 (stereo partly drawn) [P-236]	0.269 µM	23.3%
C[C@H](C#N)Nc1cc(-n2ncc3cc(C#N)cnc32)ncc1-n1cc(C2CCC(CCN3[C@@H](C)CN(c4ccc([C@@]5(C)CCC(=O)NC5=O)cc4)C[C@@H]3C)CC2)nn1 (stereo partly drawn) [P-238]	0.025 µM	1.1%
C[C@H](C#N)Nc1cc(-n2ncc3cc(C#N)cnc32)ncc1-n1cc(C2CCC(CCN3CCN(c4ccc([C@@]5(C)CCC(=O)NC5=O)cc4)[C@H](C)C3)CC2)nn1 (stereo partly drawn) [P-239]	0.165 µM	8.6%
C[C@@H]1CN(CCC2CCC(c3cn(-c4cnc(-n5ncc6cc(C#N)cnc65)cc4NC4(C#N)CC4)nn3)CC2)[C@@H](C)CN1c1ccc([C@@]2(C)CCC(=O)NC2=O)cc1 (stereo partly drawn) [P-240]	0.297 µM	14.5%
C[C@H](C#N)Nc1cc(-n2ncc3cc(C#N)cnc32)ncc1-n1cc(C2CCC(CCN3CCN(c4ccc([C@@]5(C)CCC(=O)NC5=O)cc4)[C@@H](C)C3)CC2)nn1 (stereo partly drawn) [P-241]	0.039 µM	3.5%
C[C@H](C#N)Nc1cc(-n2ncc3cc(C#N)c(N)nc32)ncc1-n1cc(C2CCC(CCN3[C@H](C)CN(c4ccc([C@@]5(C)CCC(=O)NC5=O)cc4)C[C@H]3C)CC2)nn1 (stereo partly drawn) [P-242]	0.023 µM	2.5%
C[C@H](C#N)Nc1cc(-n2ncc3cc(C#N)cnc32)ncc1-n1cc(C2CCC(CCN3[C@H](C)CN(c4ccc([C@@]5(C)CCC(=O)NC5=O)cc4)C[C@H]3C)CC2)nn1 (stereo partly drawn) [P-243]	0.159 µM	3.9%
C[C@H](C#N)Nc1cc(-n2ncc3cc(C#N)cnc32)ncc1-n1cc(C2CCC(CCN3C[C@H](C)N(c4ccc([C@@]5(C)CCC(=O)NC5=O)cc4)C[C@H]3C)CC2)nn1 (stereo partly drawn) [P-244]	0.056 µM	3.5%
C[C@H](C#N)Nc1cc(-n2ncc3cc(C#N)c(N)nc32)ncc1-n1cc(C2CCC(CCN3CCN(c4ccc([C@@]5(C)CCC(=O)NC5=O)cc4)[C@@H](C)C3)CC2)nn1 (stereo partly drawn) [P-245]	0.012 µM	2.6%
C[C@]1(c2ccc(N3CCN(CC[C@H]4CC[C@H](c5cn(-c6cnc(-n7ncc8cc(C#N)c(N)nc87)cc6NC6(C#N)CC6)nn5)CC4)CC3)cc2)CCC(=O)NC1=O [P-246]	0.0068 µM	4.1%

Structure (SMILES)	DC50	LVL THP1 HTRF YMIN
C[C@H](C#N)Nc1cc(-n2ncc3ccc(N4C[C@H]5C[C@@H]4CO5)nc32)ncc1-n1cc([C@H]2CC[C@H](CCN3CCN(c4ccc([C@@]5(C)CCC(=O)NC5=O)cc4)CC3)CC2)nn1 [P-247]	0.191 µM	13.4%
C[C@H](C#N)Nc1cc(-n2ncc3cc(C#N)c(N)nc32)ncc1C(=O)N[C@H]1CC[C@H](CCN2CCN(c3ccc([C@@]4(C)CCC(=O)NC4=O)cc3)[C@@H](C)C2)CC1 [P-248]	0.004 µM	4.1%
C[C@H](C#N)Nc1cc(-n2ncc3cc(C#N)c(N)nc32)ncc1C(=O)N[C@H]1CC[C@H](CCN2CCN(c3ccc([C@@]4(C)CCC(=O)NC4=O)cc3)CC2)CC1 [P-250]	0.0012 µM	2.4%
C[C@H](C#N)Nc1cc(-n2ncc3cc(C#N)c(N)nc32)ncc1-n1cc([C@H]2CC[C@H](CCN3[C@@H](C)CN(c4ccc([C@@]5(C)CCC(=O)NC5=O)cc4)C[C@@H]3C)CC2)nn1 [P-251]	0.0098 µM	1.9%
C[C@H](C#N)Nc1cc(-n2ncc3cc(C#N)c(N4C[C@H]5C[C@@H]4CO5)nc32)ncc1-n1cc([C@H]2CC[C@H](CCN3CCN(c4ccc([C@@]5(C)CCC(=O)NC5=O)cc4)CC3)CC2)nn1 [P-269]	0.0118 µM	6.3%
C[C@H](C#N)Nc1cc(-n2ncc3cc(C#N)cnc32)ncc1C(=O)N[C@H]1CC[C@H](CCN2CC[C@H](c3ccc([C@@]4(C)CCC(=O)NC4=O)cc3)C[C@H]2C)CC1 [P-270]	0.0065 µM	0.2%
C[C@H](C#N)Nc1cc(-n2ncc3cc(C#N)cnc32)ncc1C(=O)N[C@H]1CC[C@H](CCN2CC[C@@H](c3ccc([C@@]4(C)CCC(=O)NC4=O)cc3)C[C@@H]2C)CC1 [P-271]	0.0188 µM	9.9%
CC1CN(CC[C@H]2CC[C@H](NC(=O)c3cnc(-n4ncc5cc(C#N)cnc54)cc3N[C@H](C)C#N)CC2)CCC1c1ccc([C@@]2(C)CCC(=O)NC2=O)cc1 (stereo partly drawn) [P-272]	0.0103 µM	10.2%
C[C@H](C#N)Nc1cc(-n2ncc3cc(C#N)cnc32)ncc1C(=O)N[C@H]1CC[C@H](CCN2CCC(c3ccc([C@@]4(C)CCC(=O)NC4=O)cc3)CC2)CC1 [P-273]	0.0049 µM	5.6%
C[C@H](C#N)Nc1cc(-n2ncc3cc(C#N)cnc32)ncc1C(=O)N[C@H]1CC[C@H](CCN2CCC(F)(c3ccc([C@@]4(C)CCC(=O)NC4=O)cc3)CC2)CC1 [P-274]	0.0058 µM	3.5%
C[C@H](C#N)Nc1cc(-n2ncc3cc(C#N)cnc32)ncc1C(=O)N[C@H]1CC[C@H](CCN2CCN(c3ccc([C@@]4(C)CCC(=O)NC4=O)cc3)[C@@H](C)C2)CC1 [P-275]	0.0146 µM	2.9%
CC1CN(CC[C@H]2CC[C@H](c3cn(-c4cnc(-n5ncc6cc(C#N)cnc65)cc4N[C@H](C)C#N)nn3)CC2)CCC1c1ccc([C@@]2(C)CCC(=O)NC2=O)cc1 (stereo partly drawn) [P-285]	0.0185 µM	10.4%
C[C@H](C#N)Nc1cc(Nc2ncc(C#N)cc2Cl)ncc1-n1cc([C@H]2CC[C@H](CCN3CCN(c4ccc([C@@]5(C)CCC(=O)NC5=O)cc4)CC3)CC2)nn1 [P-297]	0.0493 µM	6.5%
C[C@H](C#N)Nc1cc(Nc2ccc(C#N)cn2)ncc1-n1cc([C@H]2CC[C@H](CCN3CCN(c4ccc([C@@]5(C)CCC(=O)NC5=O)cc4)CC3)CC2)nn1 [P-298]	0.0827 µM	3.2%
C[C@H](C#N)Nc1cc(Nc2ncc(C#N)cc2F)ncc1-n1cc([C@H]2CC[C@H](CCN3CCN(c4ccc([C@@]5(C)CCC(=O)NC5=O)cc4)CC3)CC2)nn1 [P-299]	0.0364 µM	3.5%
C[C@H](C#N)Nc1cc(Nc2ncc(C#N)cn2)ncc1-n1cc([C@H]2CC[C@H](CCN3CCN(c4ccc([C@@]5(C)CCC(=O)NC5=O)cc4)CC3)CC2)nn1 [P-300]	0.243 µM	11.7%
C[C@@H]1CN(CC[C@H]2CC[C@H](c3cn(-c4cnc(-n5ncc6cc(C#N)cnc65)cc4NC4(C#N)CC4)nn3)CC2)CCN1c1ccc([C@@]2(C)CCC(=O)NC2=O)cc1 [P-301]	0.103 µM	17.8%
C[C@H](C#N)Nc1cc(-n2ncc3cc(C#N)cnc32)ncc1-n1cc([C@H]2CC[C@H](CCN3CCC(c4ccc([C@@]5(C)CCC(=O)NC5=O)cc4)C(F)C3)CC2)nn1 (stereo partly drawn) [P-311]	0.003 µM	−1.0%
C[C@H](C#N)Nc1cc(-c2ccc3cc(C#N)cnn23)ncc1-n1cc([C@H]2CC[C@H](CCN3CCN(c4ccc(C5CCC(=O)NC5=O)cc4)CC3)CC2)nn1 (stereo partly drawn) [P-315]	0.0022 µM	1.4%
